Measurements as given in patent US20200121716A1, “Method for Inhibiting Both Glycolysis and Glutamine Metabolism in Cells and Use Thereof” (priority 2017, published 2020).

Tested on: anaerobia
Test: spontaneous anaerobic fermentation of flour paste sealed with rapeseed oil
Format: cell-based

SMILES	aqueous solution above the settled flour
O=C([O-])C(=O)[O-].[Na+].[Na+] [sodium oxalate]	clear and transparent
O=CO [formic acid]	clear and transparent
